# Experimental data published in ChEMBL document CHEMBL1201862, “PubChem BioAssay data set” (2004).
# Active and inactive are the calls of the source.
# Tests used:
# Vero = test: cells; format: functional; settings: Chlorocebus sabaeus
# [1] = target: T1, Zinc finger protein mex-5 (Caenorhabditis elegans, UniProt Q9XUB2); test: MEX-5/TCR-2 RNA interaction inhibitors, dose response, biochemical, C. elegans, fluorescence polarization (AID 1960)
# T1 sequence (Q9XUB2 whole entry): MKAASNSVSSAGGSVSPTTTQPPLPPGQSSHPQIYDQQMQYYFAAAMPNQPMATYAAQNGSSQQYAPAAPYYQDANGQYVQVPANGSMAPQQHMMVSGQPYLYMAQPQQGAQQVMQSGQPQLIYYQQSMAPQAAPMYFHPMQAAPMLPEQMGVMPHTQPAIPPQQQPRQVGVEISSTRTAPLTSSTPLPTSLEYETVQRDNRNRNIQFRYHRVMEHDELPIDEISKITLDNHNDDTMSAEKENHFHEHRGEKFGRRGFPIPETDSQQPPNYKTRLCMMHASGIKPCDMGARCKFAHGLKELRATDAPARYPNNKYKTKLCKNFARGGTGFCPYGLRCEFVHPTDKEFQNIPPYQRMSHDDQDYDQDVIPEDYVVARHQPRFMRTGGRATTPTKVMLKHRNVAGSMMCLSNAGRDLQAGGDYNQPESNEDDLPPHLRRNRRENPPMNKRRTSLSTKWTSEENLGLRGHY
# [2] = target: Hepatocyte nuclear factor 4-alpha (Homo sapiens, UniProt P41235); format: functional, cell-based;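 further: biochemical luminescence-based dose-response counterscreen measuring inhibition of HNF4 dimerization, run alongside a screen for blockers of ABHD5–perilipin-5 interaction; split luciferase complementation of HNF4 fusion proteins in cell lysate measuring dimerization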
# Chain of Hepatocyte nuclear factor 4-alpha (P41235 whole entry, the tested form may be a part): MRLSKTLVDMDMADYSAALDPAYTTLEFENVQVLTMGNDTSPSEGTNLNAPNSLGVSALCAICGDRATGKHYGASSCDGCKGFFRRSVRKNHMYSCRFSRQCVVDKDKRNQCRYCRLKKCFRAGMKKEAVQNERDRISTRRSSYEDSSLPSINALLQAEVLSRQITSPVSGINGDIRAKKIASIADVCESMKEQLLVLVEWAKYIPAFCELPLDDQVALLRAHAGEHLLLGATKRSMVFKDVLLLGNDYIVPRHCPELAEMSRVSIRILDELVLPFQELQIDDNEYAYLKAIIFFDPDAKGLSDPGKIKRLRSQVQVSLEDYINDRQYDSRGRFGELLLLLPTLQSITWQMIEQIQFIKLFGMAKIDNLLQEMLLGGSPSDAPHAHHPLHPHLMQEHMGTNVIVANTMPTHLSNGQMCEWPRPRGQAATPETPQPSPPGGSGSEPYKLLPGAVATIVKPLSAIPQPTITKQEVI
# Beta-galactosidase = Beta-galactosidase (Escherichia coli, UniProt Q8VNN2); test: PubChem AID 485352; format: functional
# Chain of Beta-galactosidase (Q8VNN2 whole entry, the tested form may be a part): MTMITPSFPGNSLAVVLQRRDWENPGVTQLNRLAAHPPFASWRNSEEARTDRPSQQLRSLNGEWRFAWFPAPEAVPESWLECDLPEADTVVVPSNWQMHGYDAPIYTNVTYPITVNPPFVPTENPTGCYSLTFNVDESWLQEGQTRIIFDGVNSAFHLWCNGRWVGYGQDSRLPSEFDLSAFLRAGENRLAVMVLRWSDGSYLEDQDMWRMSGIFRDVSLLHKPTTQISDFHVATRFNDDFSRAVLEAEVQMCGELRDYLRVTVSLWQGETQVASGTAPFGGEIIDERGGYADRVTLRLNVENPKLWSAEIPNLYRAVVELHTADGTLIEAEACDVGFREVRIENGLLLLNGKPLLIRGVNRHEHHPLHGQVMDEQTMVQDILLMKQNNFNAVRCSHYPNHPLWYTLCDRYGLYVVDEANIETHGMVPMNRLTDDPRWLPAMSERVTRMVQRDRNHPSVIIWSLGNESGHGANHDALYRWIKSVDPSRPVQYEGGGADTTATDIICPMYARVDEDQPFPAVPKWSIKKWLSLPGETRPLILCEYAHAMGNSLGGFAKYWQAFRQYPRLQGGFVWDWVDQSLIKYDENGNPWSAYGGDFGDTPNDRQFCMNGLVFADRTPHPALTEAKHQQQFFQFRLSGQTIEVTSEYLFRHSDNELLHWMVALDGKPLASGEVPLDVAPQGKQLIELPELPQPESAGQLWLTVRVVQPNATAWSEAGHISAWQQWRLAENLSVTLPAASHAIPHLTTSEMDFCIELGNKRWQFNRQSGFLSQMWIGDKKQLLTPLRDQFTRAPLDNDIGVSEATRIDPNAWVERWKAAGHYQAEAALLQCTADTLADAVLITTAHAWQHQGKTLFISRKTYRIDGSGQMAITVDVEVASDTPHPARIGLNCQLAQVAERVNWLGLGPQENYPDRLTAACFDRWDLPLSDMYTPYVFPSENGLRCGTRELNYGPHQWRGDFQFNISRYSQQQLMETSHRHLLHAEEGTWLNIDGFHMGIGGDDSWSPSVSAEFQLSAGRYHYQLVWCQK
# [3] = target: T2, RNA-binding protein pos-1 (Caenorhabditis elegans, UniProt G5EF15); test: inhibitors of POS-1/mex-3 RNA binding, dose response, biochemical, fluorescence polarization (AID 1964);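 further: purified POS-1 fused to maltose binding protein made in E. coli; potency of compounds blocking POS-1 binding to fluorescent RNA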
# T2 sequence (G5EF15 whole entry): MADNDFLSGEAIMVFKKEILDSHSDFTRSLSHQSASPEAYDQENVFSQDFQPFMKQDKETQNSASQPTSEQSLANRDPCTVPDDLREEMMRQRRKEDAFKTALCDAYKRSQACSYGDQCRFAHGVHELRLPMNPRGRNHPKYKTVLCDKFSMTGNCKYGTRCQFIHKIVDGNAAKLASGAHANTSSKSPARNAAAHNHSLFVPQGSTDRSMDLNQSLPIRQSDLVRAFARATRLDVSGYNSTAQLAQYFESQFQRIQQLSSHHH
# Hexokinase-1 = target: T3, Hexokinase-1 (Homo sapiens, UniProt P19367); test: hexokinase 1 activators, dose response, selectivity assay for HKDC1 activator project, biochemical (AID 504762); format: functional
# T3 sequence (P19367 whole entry): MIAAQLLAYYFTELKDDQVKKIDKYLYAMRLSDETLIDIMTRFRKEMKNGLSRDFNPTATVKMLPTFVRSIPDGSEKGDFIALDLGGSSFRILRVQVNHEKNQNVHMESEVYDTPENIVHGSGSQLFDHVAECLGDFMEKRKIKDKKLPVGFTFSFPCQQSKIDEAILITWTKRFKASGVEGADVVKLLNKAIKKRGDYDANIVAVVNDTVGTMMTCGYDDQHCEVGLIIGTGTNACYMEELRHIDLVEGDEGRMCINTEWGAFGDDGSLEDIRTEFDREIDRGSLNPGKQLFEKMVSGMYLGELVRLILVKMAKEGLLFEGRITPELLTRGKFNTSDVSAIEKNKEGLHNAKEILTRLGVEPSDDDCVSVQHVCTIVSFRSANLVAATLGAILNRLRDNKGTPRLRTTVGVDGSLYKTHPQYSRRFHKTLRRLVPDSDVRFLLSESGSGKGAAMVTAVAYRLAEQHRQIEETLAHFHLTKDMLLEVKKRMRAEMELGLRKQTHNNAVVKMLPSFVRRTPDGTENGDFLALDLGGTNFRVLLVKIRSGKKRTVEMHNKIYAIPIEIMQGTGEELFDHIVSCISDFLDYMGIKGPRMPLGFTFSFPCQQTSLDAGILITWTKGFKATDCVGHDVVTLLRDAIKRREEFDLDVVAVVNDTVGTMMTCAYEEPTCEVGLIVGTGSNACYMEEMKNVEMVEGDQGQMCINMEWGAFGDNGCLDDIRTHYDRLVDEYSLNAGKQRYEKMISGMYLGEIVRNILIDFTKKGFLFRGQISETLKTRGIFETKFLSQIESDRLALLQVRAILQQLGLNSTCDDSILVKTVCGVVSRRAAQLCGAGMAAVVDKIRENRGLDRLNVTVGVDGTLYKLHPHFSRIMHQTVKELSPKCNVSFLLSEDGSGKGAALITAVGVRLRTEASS
# [4] = target: T4, Endoribonuclease toxin MazF (Escherichia coli K-12, UniProt P0AE70); test: fluorescent RNA oligo signal without MazF, dose response, counter-screen for MazEF activator project, biochemical, fluorescence, single-stranded RNase substrate (AID 588502); format: functional
# T4 sequence (P0AE70 whole entry): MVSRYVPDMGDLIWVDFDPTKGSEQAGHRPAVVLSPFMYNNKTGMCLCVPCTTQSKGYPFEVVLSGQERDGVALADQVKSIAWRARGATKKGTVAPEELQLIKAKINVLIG
# Hexokinase HKDC1 = target: T5, Hexokinase HKDC1 (Homo sapiens, UniProt Q2TB90); test: HKDC1 hexokinase activators, dose response, biochemical, W721R variant (AID 504730); format: functional
# T5 sequence (Q2TB90 whole entry): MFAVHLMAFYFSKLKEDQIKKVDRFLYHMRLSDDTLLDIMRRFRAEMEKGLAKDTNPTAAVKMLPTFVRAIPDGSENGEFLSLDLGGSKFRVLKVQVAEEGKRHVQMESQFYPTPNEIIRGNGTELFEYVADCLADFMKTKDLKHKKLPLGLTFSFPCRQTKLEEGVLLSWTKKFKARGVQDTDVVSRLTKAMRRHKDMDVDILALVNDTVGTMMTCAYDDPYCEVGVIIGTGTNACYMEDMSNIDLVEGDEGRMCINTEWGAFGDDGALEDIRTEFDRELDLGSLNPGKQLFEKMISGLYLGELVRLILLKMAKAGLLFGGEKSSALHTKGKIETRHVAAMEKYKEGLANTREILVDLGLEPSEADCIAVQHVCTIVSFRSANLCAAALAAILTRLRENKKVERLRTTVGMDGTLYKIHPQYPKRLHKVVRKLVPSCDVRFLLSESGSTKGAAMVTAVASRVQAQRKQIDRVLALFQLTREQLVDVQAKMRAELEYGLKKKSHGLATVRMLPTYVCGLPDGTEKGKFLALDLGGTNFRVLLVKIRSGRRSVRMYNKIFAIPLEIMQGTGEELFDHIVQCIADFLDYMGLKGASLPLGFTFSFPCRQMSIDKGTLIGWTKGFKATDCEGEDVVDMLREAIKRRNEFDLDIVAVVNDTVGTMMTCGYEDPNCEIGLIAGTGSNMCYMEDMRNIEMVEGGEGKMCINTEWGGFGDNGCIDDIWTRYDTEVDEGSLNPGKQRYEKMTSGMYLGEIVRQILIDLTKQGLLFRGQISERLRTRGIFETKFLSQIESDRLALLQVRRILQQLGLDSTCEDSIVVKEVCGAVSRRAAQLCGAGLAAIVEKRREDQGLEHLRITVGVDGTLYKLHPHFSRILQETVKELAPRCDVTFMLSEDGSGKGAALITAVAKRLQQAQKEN
# [5] = target: T4, Endoribonuclease toxin MazF; test: MazF toxin RNase activators, dose response, biochemical, fluorescence, single-stranded RNA substrate, uHTS hits (AID 588481); format: functional
# [6] = target: T6, Type-1 angiotensin II receptor (Homo sapiens, UniProt P30556); test: AT1 receptor antagonists, dose response, selectivity assay for APJ receptor antagonist project, cell-based, uHTS hits (AID 463214); format: functional;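 further: antagonist potency against angiotensin II stimulated AT1 response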
# T6 sequence (P30556 whole entry): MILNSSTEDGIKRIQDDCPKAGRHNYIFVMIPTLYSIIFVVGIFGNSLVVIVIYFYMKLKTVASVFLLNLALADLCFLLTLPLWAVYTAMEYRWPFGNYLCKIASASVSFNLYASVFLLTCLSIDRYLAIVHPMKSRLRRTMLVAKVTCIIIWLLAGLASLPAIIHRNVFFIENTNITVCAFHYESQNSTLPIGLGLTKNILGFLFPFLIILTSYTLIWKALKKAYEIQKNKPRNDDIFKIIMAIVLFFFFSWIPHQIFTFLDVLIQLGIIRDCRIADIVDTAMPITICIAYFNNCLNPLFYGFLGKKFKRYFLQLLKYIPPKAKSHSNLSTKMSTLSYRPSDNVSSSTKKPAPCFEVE
# Beta-lactamase [7] = target: Beta-lactamase (Salmonella choleraesuis (strain SC-B67), UniProt Q5J463); test: Epi-absorbance-based counterscreen for selective VIM-2 inhibitors: dose response biochemical high throughput screening assay to identify inhibitors of TEM-1 serine-beta-lactamase.
# Chain of Beta-lactamase (Salmonella choleraesuis (strain SC-B67), UniProt Q5J463) (Q5J463 whole entry): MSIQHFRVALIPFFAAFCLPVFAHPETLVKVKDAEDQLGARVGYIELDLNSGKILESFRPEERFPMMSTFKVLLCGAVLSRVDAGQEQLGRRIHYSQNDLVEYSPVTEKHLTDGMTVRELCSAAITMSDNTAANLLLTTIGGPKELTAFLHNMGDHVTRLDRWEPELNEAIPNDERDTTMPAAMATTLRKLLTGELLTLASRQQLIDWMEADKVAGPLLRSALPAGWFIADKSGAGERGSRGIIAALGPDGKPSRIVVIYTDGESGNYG
# Beta-lactamase [8] = target: T7, Beta-lactamase (Pseudomonas aeruginosa, UniProt Q79MP6); test: […] counterscreen for selective VIM-2 inhibitors: dose response biochemical high throughput screening assay to identify inhibitors of IMP-1 metallo-beta-lactamase.
# T7 sequence (Q79MP6 whole entry): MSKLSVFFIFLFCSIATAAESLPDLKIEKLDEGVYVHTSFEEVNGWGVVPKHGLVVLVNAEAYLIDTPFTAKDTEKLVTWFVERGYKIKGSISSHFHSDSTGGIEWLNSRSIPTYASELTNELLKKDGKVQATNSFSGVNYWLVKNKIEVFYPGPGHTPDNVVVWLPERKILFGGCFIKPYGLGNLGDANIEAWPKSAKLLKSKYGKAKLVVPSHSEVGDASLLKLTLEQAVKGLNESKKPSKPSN
# Beta-lactamase [9] = target: T7, Beta-lactamase; test: IMP-1 metallo-beta-lactamase inhibitors, dose response, selectivity assay for VIM-2 inhibitor project, biochemical, epi-absorbance (AID 1920)
# [10] = target: Tyrosine-protein phosphatase non-receptor type 5 (Homo sapiens, UniProt P54829); test: STEP phosphatase inhibitors, confirmation, biochemical, fluorescence intensity, uHTS hits (AID 602372); format: functional; settings: read-out: IC50_Mean
# Chain of Tyrosine-protein phosphatase non-receptor type 5 (P54829 whole entry): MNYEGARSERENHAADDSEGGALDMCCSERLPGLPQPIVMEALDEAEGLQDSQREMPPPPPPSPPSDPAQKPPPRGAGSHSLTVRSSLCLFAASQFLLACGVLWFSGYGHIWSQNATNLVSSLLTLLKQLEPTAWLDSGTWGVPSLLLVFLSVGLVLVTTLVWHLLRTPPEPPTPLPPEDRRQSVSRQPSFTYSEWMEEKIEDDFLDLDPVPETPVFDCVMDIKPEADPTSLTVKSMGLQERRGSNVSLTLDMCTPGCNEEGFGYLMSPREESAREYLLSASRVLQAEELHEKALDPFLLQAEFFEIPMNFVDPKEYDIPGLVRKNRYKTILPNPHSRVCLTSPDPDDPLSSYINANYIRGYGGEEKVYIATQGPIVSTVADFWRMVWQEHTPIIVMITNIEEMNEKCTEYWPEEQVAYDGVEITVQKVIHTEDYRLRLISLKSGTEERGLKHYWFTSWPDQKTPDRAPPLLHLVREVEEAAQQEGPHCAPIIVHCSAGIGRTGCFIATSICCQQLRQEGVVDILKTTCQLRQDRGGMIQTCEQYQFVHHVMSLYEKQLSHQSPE
# [11] = target: Dual specificity protein phosphatase 3 (Homo sapiens, UniProt P51452); test: VHR phosphatase inhibition, dose response, selectivity assay for STEP inhibitor project, biochemical (AID 602374); format: functional; settings: read-out: IC50_Mean
# Chain of Dual specificity protein phosphatase 3 (P51452 whole entry): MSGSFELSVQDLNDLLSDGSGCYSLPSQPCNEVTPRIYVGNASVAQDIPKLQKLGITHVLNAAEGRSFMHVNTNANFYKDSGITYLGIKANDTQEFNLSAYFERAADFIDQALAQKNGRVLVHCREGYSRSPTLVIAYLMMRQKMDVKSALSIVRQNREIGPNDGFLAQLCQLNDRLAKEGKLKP
# [12] = target: T8, Tyrosine-protein phosphatase non-receptor type 22 (Homo sapiens, UniProt Q9Y2R2); test: PTPN22 phosphatase inhibition, dose response, selectivity assay for STEP inhibitor project, biochemical (AID 624241); format: functional
# T8 sequence (Q9Y2R2 whole entry): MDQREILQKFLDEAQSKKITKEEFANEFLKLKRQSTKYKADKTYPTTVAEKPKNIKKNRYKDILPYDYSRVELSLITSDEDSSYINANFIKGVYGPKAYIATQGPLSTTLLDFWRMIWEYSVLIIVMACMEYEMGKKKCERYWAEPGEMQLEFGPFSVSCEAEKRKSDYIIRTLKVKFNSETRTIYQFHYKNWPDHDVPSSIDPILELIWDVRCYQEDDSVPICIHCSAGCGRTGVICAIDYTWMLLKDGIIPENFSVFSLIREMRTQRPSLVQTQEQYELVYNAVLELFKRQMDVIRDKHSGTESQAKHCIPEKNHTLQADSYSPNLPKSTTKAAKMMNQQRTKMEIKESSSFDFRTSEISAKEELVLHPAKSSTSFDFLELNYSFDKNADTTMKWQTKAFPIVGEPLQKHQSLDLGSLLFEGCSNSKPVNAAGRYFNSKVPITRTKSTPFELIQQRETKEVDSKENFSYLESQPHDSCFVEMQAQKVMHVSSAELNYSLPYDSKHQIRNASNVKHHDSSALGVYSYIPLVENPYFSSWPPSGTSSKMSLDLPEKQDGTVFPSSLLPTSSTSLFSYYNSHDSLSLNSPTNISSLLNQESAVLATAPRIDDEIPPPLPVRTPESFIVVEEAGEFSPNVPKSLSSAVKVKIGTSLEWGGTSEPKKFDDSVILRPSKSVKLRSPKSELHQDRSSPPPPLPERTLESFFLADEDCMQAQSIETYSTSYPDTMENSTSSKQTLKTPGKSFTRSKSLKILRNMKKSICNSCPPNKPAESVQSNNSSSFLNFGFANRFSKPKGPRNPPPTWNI
# [13] = target: Tyrosine-protein phosphatase non-receptor type 11 (Homo sapiens, UniProt Q06124); test: SHP2 phosphatase inhibition, dose response, selectivity assay for STEP inhibitor project, biochemical (AID 602367); format: functional; settings: read-out: IC50_Mean
# Chain of Tyrosine-protein phosphatase non-receptor type 11 (Q06124 whole entry): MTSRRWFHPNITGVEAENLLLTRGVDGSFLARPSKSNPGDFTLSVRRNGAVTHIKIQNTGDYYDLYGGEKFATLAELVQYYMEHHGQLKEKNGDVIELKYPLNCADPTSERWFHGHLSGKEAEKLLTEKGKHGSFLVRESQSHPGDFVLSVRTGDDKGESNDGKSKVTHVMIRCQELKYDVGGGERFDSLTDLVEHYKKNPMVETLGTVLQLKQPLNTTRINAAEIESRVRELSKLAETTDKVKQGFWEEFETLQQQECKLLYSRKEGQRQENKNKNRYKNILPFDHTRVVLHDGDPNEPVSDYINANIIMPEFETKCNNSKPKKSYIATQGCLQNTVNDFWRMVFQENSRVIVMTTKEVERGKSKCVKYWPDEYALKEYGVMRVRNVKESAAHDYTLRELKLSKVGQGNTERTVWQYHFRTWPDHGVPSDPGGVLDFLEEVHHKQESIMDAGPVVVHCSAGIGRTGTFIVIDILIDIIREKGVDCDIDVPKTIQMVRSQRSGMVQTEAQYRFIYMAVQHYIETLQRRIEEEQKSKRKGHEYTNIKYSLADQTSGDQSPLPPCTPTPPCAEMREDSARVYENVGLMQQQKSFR
# Mu-type opioid receptor = Mu-type opioid receptor (Homo sapiens, UniProt P35372); format: functional, cell-based;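 further: U2OS cells with beta-arrestin recruitment to OPRM1 by beta-gal complementation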
# Chain of Mu-type opioid receptor (P35372 whole entry): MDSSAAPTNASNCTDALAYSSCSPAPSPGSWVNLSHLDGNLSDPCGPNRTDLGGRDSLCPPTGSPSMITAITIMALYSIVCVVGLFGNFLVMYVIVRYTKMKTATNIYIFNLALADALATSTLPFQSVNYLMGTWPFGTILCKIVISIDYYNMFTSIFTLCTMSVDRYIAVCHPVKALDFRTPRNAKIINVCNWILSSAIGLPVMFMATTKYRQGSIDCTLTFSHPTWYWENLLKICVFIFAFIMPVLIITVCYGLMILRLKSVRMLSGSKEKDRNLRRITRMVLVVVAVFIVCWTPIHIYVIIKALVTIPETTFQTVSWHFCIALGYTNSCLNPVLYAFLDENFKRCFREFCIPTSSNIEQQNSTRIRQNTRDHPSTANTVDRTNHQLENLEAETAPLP
# [14] = target: 5-hydroxytryptamine receptor 2A (Mus musculus, UniProt P35363); format: functional, cell-based;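 further: CHO-K1 cells with tagged receptor and beta-arrestin; agonist potency measured as compound-induced activation of the receptor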
# Chain of 5-hydroxytryptamine receptor 2A (P35363 whole entry): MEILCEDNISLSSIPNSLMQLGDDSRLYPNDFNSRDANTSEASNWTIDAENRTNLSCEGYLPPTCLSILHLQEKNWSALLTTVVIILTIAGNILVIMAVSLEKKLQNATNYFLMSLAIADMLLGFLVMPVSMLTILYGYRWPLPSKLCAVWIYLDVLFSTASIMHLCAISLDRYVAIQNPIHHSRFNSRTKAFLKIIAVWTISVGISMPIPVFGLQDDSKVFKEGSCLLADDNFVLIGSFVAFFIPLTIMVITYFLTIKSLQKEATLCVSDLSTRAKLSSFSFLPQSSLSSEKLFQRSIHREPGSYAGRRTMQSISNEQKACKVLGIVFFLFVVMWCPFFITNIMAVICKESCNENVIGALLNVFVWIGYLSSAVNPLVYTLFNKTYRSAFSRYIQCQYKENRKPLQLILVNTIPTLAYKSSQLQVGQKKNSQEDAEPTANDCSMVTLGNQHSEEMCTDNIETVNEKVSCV
smiles,measurement,setting,value
CC(=O)C1=C(c2cccc([N+](=O)[O-])c2)N(C(C)=O)n2c(C)nnc2S1,CC50,Vero,24.4 µM (active)
same,EC50,[1],> 300 µM (inconclusive)
same,IC50,[2],4.27 µM (active)
same,EC50,Beta-galactosidase,15 µM (active)
same,EC50,[3],44.2 µM (active)
same,EC50,Hexokinase-1,6.54 µM (active)
same,EC50,[4],45.2 µM (inactive)
same,EC50,Hexokinase HKDC1,8.32 µM (active)
same,EC50,[5],20.5 µM (inactive)
same,IC50,[6],8.72 µM (active)
CCN(CC)C(=O)CSc1nc2ccc(NC(=O)CSc3nccn3C)cc2s1,IC50,Beta-lactamase [7],> 59.6 µM (inactive)
same,IC50,Beta-lactamase [8],> 59.6 µM (inactive)
same,IC50,Beta-lactamase [9],> 59.6 µM (inactive)
CCC(CC)c1nnc(NC(=O)c2cc(C(=O)OC)cc([N+](=O)[O-])c2)s1,IC50,[10],8.62 µM (active)
same,IC50,[11],0.567 µM (active)
same,IC50,[12],75.6 µM (inactive)
same,IC50,[13],2.28 µM (active)
COc1ccc(C)cc1NC(=O)CCN1CCN(c2ccccc2F)CC1,EC50,Mu-type opioid receptor,92.5 µM (inactive)
same,EC50,[14],76.1 µM (inactive)
